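48-hour exposure; five concentrations; linearly interpolated endpoints. GI50: concentration for 50% inhibition of growth. Definition used: TGI = concentration required for complete inhibition of growth.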
How the values were obtained:
Test in all cases: DTP human tumour cell line panel, 48 h
EKVX NSCLC = system: EKVX NSCLC
RPMI-8226 leukemia = system: RPMI-8226 leukemia
COLO 205 colon = system: COLO 205 colon
CCRF-CEM leukemia = system: CCRF-CEM leukemia
UACC-257 melanoma = system: UACC-257 melanoma
NCI-H23 lung = system: NCI-H23 lung
MDA-MB-435 = system: MDA-MB-435
OVCAR-5 ovarian = system: OVCAR-5 ovarian
SK-MEL-5 melanoma = system: SK-MEL-5 melanoma
SN12C renal = system: SN12C renal
HL-60(TB) leukemia = system: HL-60(TB) leukemia
SK-MEL-28 melanoma = system: SK-MEL-28 melanoma
LOX IMVI melanoma = system: LOX IMVI melanoma
BT-549 breast = system: BT-549 breast
MDA-MB-231 breast = system: MDA-MB-231 breast
HS 578T breast = system: HS 578T breast
SR leukemia = system: SR leukemia
A498 renal = system: A498 renal
SF-268 CNS = system: SF-268 CNS
HOP-92 NSCLC = system: HOP-92 NSCLC
DU-145 prostate = system: DU-145 prostate
SF-295 CNS = system: SF-295 CNS
SK-OV-3 ovarian = system: SK-OV-3 ovarian
TK-10 renal = system: TK-10 renal
T-47D breast = system: T-47D breast
NCI-H226 lung = system: NCI-H226 lung
SF-539 CNS = system: SF-539 CNS
SNB-75 CNS = system: SNB-75 CNS
NCI-H522 lung = system: NCI-H522 lung
M14 melanoma = system: M14 melanoma
HOP-62 NSCLC = system: HOP-62 NSCLC
MCF7 breast = system: MCF7 breast
KM12 colon = system: KM12 colon
OVCAR-4 ovarian = system: OVCAR-4 ovarian
IGROV1 ovarian = system: IGROV1 ovarian
RXF 393 renal = system: RXF 393 renal
MOLT-4 leukemia = system: MOLT-4 leukemia
HCT-15 colon = system: HCT-15 colon
HT29 colon = system: HT29 colon
UO-31 renal = system: UO-31 renal
NCI-H460 lung = system: NCI-H460 lung
MALME-3M melanoma = system: MALME-3M melanoma
OVCAR-8 ovarian = system: OVCAR-8 ovarian
K-562 leukemia = system: K-562 leukemia
HCC-2998 colon = system: HCC-2998 colon
PC-3 prostate = system: PC-3 prostate
SNB-19 CNS = system: SNB-19 CNS
NCI/ADR-RES ovarian = system: NCI/ADR-RES ovarian
SW-620 colon = system: SW-620 colon
OVCAR-3 ovarian = system: OVCAR-3 ovarian
HCT-116 colon = system: HCT-116 colon
UACC-62 melanoma = system: UACC-62 melanoma
SK-MEL-2 melanoma = system: SK-MEL-2 melanoma

In the case of `C#C[C@@]1(O)[C@@H](CO)O[C@@H](n2cc(Br)c3c(N)ncnc32)[C@@H]1O`, the GI50 (EKVX NSCLC) is reported as 0.198 µM, the TGI (EKVX NSCLC) is reported as 2.68 µM and the GI50 (RPMI-8226 leukemia) is reported as 0.128 µM. The TGI (RPMI-8226 leukemia) was 0.828 µM, the GI50 (COLO 205 colon) was 0.0891 µM and the TGI (COLO 205 colon) was 0.46 µM. For the same molecule, the GI50 (CCRF-CEM leukemia) was 0.2 µM, the TGI (CCRF-CEM leukemia) was greater than 100 µM and the GI50 (UACC-257 melanoma) was 4.08 µM. It also gave a TGI (UACC-257 melanoma) of 61.6 µM, a GI50 (NCI-H23 lung) of 0.191 µM and a TGI (NCI-H23 lung) of 2.85 µM. It also gave a GI50 (MDA-MB-435) of 0.176 µM, a TGI (MDA-MB-435) of 10.3 µM and a GI50 (OVCAR-5 ovarian) of 0.593 µM. The TGI (OVCAR-5 ovarian) was greater than 75.3 µM, the GI50 (SK-MEL-5 melanoma) was 0.107 µM and the TGI (SK-MEL-5 melanoma) was 1.94 µM. It also gave a GI50 (SN12C renal) of 0.0907 µM, a TGI (SN12C renal) greater than 100 µM and a GI50 (HL-60(TB) leukemia) of 0.0218 µM. The TGI (HL-60(TB) leukemia) was 0.0757 µM, the GI50 (SK-MEL-28 melanoma) was 3.65 µM and the TGI (SK-MEL-28 melanoma) was 38.1 µM. It also gave a GI50 (LOX IMVI melanoma) of 0.0552 µM, a TGI (LOX IMVI melanoma) of 0.249 µM and a GI50 (BT-549 breast) of 0.186 µM. For the same molecule, the TGI (BT-549 breast) was 0.663 µM, the GI50 (MDA-MB-231 breast) was 0.11 µM and the TGI (MDA-MB-231 breast) was greater than 100 µM. The GI50 (HS 578T breast) was 0.644 µM, the TGI (HS 578T breast) was greater than 72.4 µM and the GI50 (SR leukemia) was 0.0608 µM. For the same molecule, the TGI (SR leukemia) was greater than 100 µM, the GI50 (A498 renal) was 0.227 µM and the TGI (A498 renal) was 0.587 µM. The GI50 (SF-268 CNS) was 0.482 µM, the TGI (SF-268 CNS) was 51.7 µM and the GI50 (HOP-92 NSCLC) was 0.218 µM. It also gave a TGI (HOP-92 NSCLC) of 1.46 µM, a GI50 (DU-145 prostate) of 0.0974 µM and a TGI (DU-145 prostate) greater than 100 µM. It also gave a GI50 (SF-295 CNS) of 0.297 µM, a TGI (SF-295 CNS) of 7.52 µM and a GI50 (SK-OV-3 ovarian) of 0.0441 µM. It also gave a TGI (SK-OV-3 ovarian) of 0.439 µM, a GI50 (TK-10 renal) of 0.445 µM and a TGI (TK-10 renal) greater than 92.6 µM. It also gave a GI50 (T-47D breast) of 0.0173 µM, a TGI (T-47D breast) of 0.177 µM and a GI50 (NCI-H226 lung) of 1.28 µM. It also gave a TGI (NCI-H226 lung) greater than 25.2 µM, a GI50 (SF-539 CNS) of 0.298 µM and a TGI (SF-539 CNS) of 1.53 µM. For the same molecule, the GI50 (SNB-75 CNS) was 0.234 µM, the TGI (SNB-75 CNS) was 0.746 µM and the GI50 (NCI-H522 lung) was 0.0978 µM. The TGI (NCI-H522 lung) was 0.444 µM, the GI50 (M14 melanoma) was 0.226 µM and the TGI (M14 melanoma) was 13.5 µM. For the same molecule, the GI50 (HOP-62 NSCLC) was 0.3 µM, the TGI (HOP-62 NSCLC) was greater than 21.8 µM and the GI50 (MCF7 breast) was 0.0222 µM. It also gave a TGI (MCF7 breast) of 1.47 µM, a GI50 (KM12 colon) of 0.107 µM and a TGI (KM12 colon) greater than 100 µM. For the same molecule, the GI50 (OVCAR-4 ovarian) was 0.366 µM, the TGI (OVCAR-4 ovarian) was greater than 100 µM and the GI50 (IGROV1 ovarian) was 0.0699 µM. For the same molecule, the TGI (IGROV1 ovarian) was 0.485 µM, the GI50 (RXF 393 renal) was 0.48 µM and the TGI (RXF 393 renal) was 2.29 µM. It also gave a GI50 (MOLT-4 leukemia) of 0.112 µM, a GI50 (HCT-15 colon) of 0.11 µM and a TGI (HCT-15 colon) greater than 100 µM. It also gave a GI50 (HT29 colon) of 0.038 µM, a TGI (HT29 colon) greater than 100 µM and a GI50 (UO-31 renal) of 0.13 µM. For the same molecule, the TGI (UO-31 renal) was 1.5 µM, the GI50 (NCI-H460 lung) was 0.0292 µM and the TGI (NCI-H460 lung) was 0.901 µM. It also gave a GI50 (MALME-3M melanoma) of 0.708 µM, a TGI (MALME-3M melanoma) of 13.1 µM and a GI50 (OVCAR-8 ovarian) of 0.0135 µM. The TGI (OVCAR-8 ovarian) was 1.12 µM, the GI50 (K-562 leukemia) was 0.0608 µM and the TGI (K-562 leukemia) was greater than 100 µM. The GI50 (HCC-2998 colon) was 0.201 µM, the TGI (HCC-2998 colon) was 0.809 µM and the GI50 (PC-3 prostate) was 0.0893 µM. The TGI (PC-3 prostate) was greater than 29.5 µM, the GI50 (SNB-19 CNS) was 0.0606 µM and the GI50 (NCI/ADR-RES ovarian) was 0.0451 µM. It also gave a TGI (NCI/ADR-RES ovarian) of 1.02 µM, a GI50 (SW-620 colon) of 0.0487 µM and a TGI (SW-620 colon) greater than 100 µM. The GI50 (OVCAR-3 ovarian) was 0.215 µM, the TGI (OVCAR-3 ovarian) was 3.77 µM and the GI50 (HCT-116 colon) was 0.0274 µM. It also gave a TGI (HCT-116 colon) greater than 100 µM, a GI50 (UACC-62 melanoma) of 0.23 µM and a TGI (UACC-62 melanoma) of 12.3 µM. It also gave a GI50 (SK-MEL-2 melanoma) of 0.134 µM and a TGI (SK-MEL-2 melanoma) of 0.571 µM.

Source: PubChem BioAssay (NCI)
